Measured values reported in US6855730B2, “3-methylidenyl-2-indolinone modulators of protein kinase” (Sugen, Inc., priority 1998, dated 2005).
Read-outs that look alike come from different tables or passages of the source.

How the values were obtained:
Assay type in all cases: cell-based
[1] = system: HUV-EC-C cells (VEGF, Flk-1/KDR); test: HUV-EC-C assay, VEGF-stimulated 3H-thymidine incorporation; settings: Homo sapiens, read-out: HUVEC-VEGF IC50
[2] = system: HUV-EC-C cells (aFGF, FGF-R); test: cells; settings: Homo sapiens, HUVEC, read-out: HUVEC aFGF IC50
[3] = system: endogenous FGF receptors in 3Tc7/EGFr cells; test: FGF-induced BrdU incorporation assay; settings: read-out: FGF-Induced BrdU Incorp. IC50
Procedure: The cellular/catalytic assays described herein are performed in an ELISA format. The general procedure is as follows: a compound is introduced to cells expressing the test kinase, either naturally or recombinantly, for a selected period of time after which, if the test kinase is a receptor, a ligand known to activate the receptor is added. The cells are lysed and the lysate is transferred to the wells of an ELISA plate previously coated with a specific antibody recognizing the substrate of the enzymatic phosphorylation reaction. Non-substrate components of the cell lysate are washed away and the amount of phosphorylation on the substrate is detected with an antibody specifically recognizing phosphotyrosine compared with control cells that were not contacted with a test compound. The cellular/biologic assays described herein measure the amount of DNA made in response to activation of a test kinase, which is a general measure of a proliferative response. The general procedure for this assay is as follows: a compound is introduced to cells expressing the test kinase, either naturally or recombinantly, for a selected period of time after which, if the test kinase is a receptor, a ligand known to activate the receptor is added. After incubation at least overnight, a DNA labeling reagent such as Bromodeoxyuridine (BrdU) or 3H-thymidine is added. The amount of labeled DNA is detected with either an anti-BrdU antibody or by measuring radioactivity and is compared to control cells not contacted with a test compound.
FGF-Induced BrdU incorporation Assay
This assay measures FGF-induced DNA synthesis in 3Tc7/EGFr cells that express endogenous FGF receptors.
Materials and Reagents: • 1. FGF: human FGF2/bFGF (Gibco BRL, No. 13256-029). • 2. BrdU Labeling reagent, (10 mM PBS (pH 7.4), Boehringer Mannheim Cat No. 1 647 229). • 3. Fixdenat fixation solution (Boehringer Mannheim Cat No. 1 647 229). • 4. Anti-BrdU-POD (mouse monoclonal antibody conjugated with peroxidase, Boehringer Mannheim Cat. No. 1 647 229). • 5. TMB (tetramethylbenzidine, Boehringer Mannheim Cat. No. 1 647 229). • 6. PBS washing solution, pH 7.4 (Sugen, Inc.). • 7. Albumin, bovine (BSA), fraction V powder (Sigma Chemical Co., Cat. No. A-8551)
Procedure • 1. 3T3 engineered cell line: 3T3c7/EGFr. • 2. Cells are seeded at 8,000 cells/well in DMEM, 10% CS and 2 mM Gln in a 96-well plate. Incubate 24 hours at 37° C. in 5% CO2. • 3. After 24 hours, wash cells with PBS then serum starve in serum free medium (0% DMEM, 0.1% BSA) for 24 hours. • 4. Add ligand (FGF2 (1.5 nM in DMEM with 0.1% BSA) and test compound simultaneously. Negative control wells receive serum free DMEM with 0.1% BSA only, positive control wells receive FGF2 ligand but no test compound. Test compounds are prepared in serum-free DMEM with ligand in a 96-well plate and serially diluted to make seven (7) test concentrations. • 5. After 20 hours, add diluted BrdU labeling reagent (1:100 BrdU:DMEM, 0.1% BSA, final concentration is 10 μM) to the cells and incubate for 1.5 hours. • 6. Decant medium. Remove traces of material with paper towel. Add FixDenat (50 μl/well) and incubate at room temperature for 45 minutes on a plate shaker. • 7. Remove Fixdenat solution. Add blocking solution (5% dehydrated milk in PBS (200 μl/well)) and incubate for 30 minutes at room temperature on a plate shaker. • 8. Decant blocking solution, wash wells once with PBS. Add anti-BrdU-POD solution (1:100 dilution in PBS, 0.1% BSA), incubate for 90 minutes at room temperature on a plate shaker. • 9. Decant antibody conjugate, rinse wells 5 times with PBS. Dry plate by inverting on paper towel and tapping. • 10. Add TMB solution (100 μl/well), incubate 20 minutes at room temperature on a plate shaker until color development is sufficient for photometric detection. • 11. Measure absorbance at 410 nm on a Dynatech ELISA plate reader using “Dual wavelength” mode with a filter at 490 nM. Biochemical EGFR Assay

Structure (SMILES) | IC50 [1] [nM] | IC50 ([2]; aFGF-stimulated) [nM] | IC50 [3] [nM] | IC50 [2] [nM]
Cc1ccc2c(c1)/C(=C/c1[nH]c3c(c1CCC(=O)O)CCCC3)C(=O)N2 [Example 194, 3-[2-(5-Methyl-2-oxo-1,2-dihydroindol-3-ylidenemethyl)-4,5,6,7-tetrahydro-1H-indol-3-yl]-propionic acid] | 1 | – | – | –
COc1ccc2c(c1)NC(=O)/C2=C\c1[nH]c2c(c1CCC(=O)O)CCCC2 [Example 196, 3-[2-(6-Methoxy-2-oxo-1,2-dihydroindol-3-ylidenemethyl)-4,5,6,7-tetrahydro-1H-indol-3-yl]-propionic acid] | 20 | 1600 | – | –
O=C(O)CCc1c(/C=C2\C(=O)Nc3ccc(Br)cc32)[nH]c2c1CCCC2 [Example 192, 3-[2-(5-Bromo-2-oxo-1,2-dihydroindol-3-ylidenemethyl)-4,5,6,7-tetrahydro-1H-indol-3yl]-propionic acid] | 0.3 | – | – | –
CN(C)CCCc1c(/C=C2\C(=O)Nc3ccccc32)[nH]c2c1CCCC2 [Example 198, 3-[3-(3-Dimethylaminopropyl)-4,5,6,7-tetrahydro-1H-indol-2-ylmethylene]-1,3-dihydroindol-2-one] | – | – | > 50000 | –
Cc1c[nH]c(/C=C2\C(=O)Nc3cccc(C)c32)c1CCC(=O)O [Example 218, 3-[2-(4-Methyl-2-oxo-1,2-dihydroindol-3-ylidenemethyl)-4-methyl-1H-pyrrol-3-yl]-propionic acid] | < 70 | – | > 50000 | –
O=C(O)CCc1c(/C=C2\C(=O)Nc3ccc(Cl)cc32)[nH]c2c1CCCC2 [Example 191, 3-[2-(5-Chloro-2-oxo-1,2-dihydroindol-3-ylidenemethyl)-4,5,6,7-tetrahydro-1H-indol-3-yl]-propionic acid] | 0.04 | 250 | 23600 | –
CN(C)C(=O)CCc1c(/C=C2\C(=O)Nc3ccccc32)[nH]c2c1CCCC2 [Example 197, N,N-Dimethyl-3-[2-(2-oxo-1,2-dihydroindol-3-ylidenemethyl)-4,5,6,7-tetrahydro-1H-indol-3-yl]-propionamide] | < 3 | 202000 | > 50000 | –
Cc1c[nH]c(/C=C2\C(=O)Nc3ccccc32)c1CCC(=O)O [Example 215, 3-[4-Methyl-2-(2-oxo-1,2-dihydroindol-3-ylidenemethyl)-1H-pyrrol-3-yl]-propionic acid] | – | – | 25000 | 1100
Cc1c[nH]c(/C=C2\C(=O)Nc3ccc(Br)cc32)c1CCC(=O)O [Example 220, 3-[2-(5-Bromo-2-oxo-1,2-dihydroindol-3-ylidenemethyl)-4-methyl-1H-pyrrol-3-yl]-propionic acid] | 40 | – | > 50000 | –

Continued, in another order:

IC50 [1] [nM] | IC50 ([2]; aFGF-stimulated) [nM] | IC50 [3] [nM] | Structure (SMILES) | IC50 [2] [nM]
< 30 | 160 | > 50000 | CNC(=O)CCc1c(/C=C2\C(=O)Nc3ccccc32)[nH]c2c1CCCC2 [Example 201, N-Methyl-3-[2-(2-oxo-1,2-dihydroindol-3-ylidenemethyl)-4,5,6,7-tetrahydro-1H-indol-3-yl]-propionamide] | –
< 70 | – | – | Cc1c[nH]c(/C=C2\C(=O)Nc3ccc(Cl)cc32)c1CCC(=O)O [Example 216, 3-[2-(5-Chloro-2-oxo-1,2-dihydroindol-3-ylidenemethyl)-4-methyl-1H-pyrrol-3-yl]-propionic acid] | –
– | – | > 50000 | COc1ccc2c(c1)NC(=O)/C2=C\c1[nH]cc(C)c1CCC(=O)O [Example 217, 3-[2-(6-Methoxy-2-oxo-1,2-dihydroindol-3-ylidenemethyl)-4-methyl-1H-pyrrol-3-yl]-propionic acid] | –
< 30 | 100 | > 50000 | NC(=O)CCc1c(/C=C2\C(=O)Nc3ccccc32)[nH]c2c1CCCC2 [Example 199, 3-[2-(2-Oxo-1,2-dihydroindol-3-ylidenemethyl)-4,5,6,7-tetrahydro-1H-indol-3-yl]-propionamide] | –
– | – | > 50000 | O=C1Nc2ccccc2/C1=C/c1[nH]c2c(c1CCC(=O)N1CCOCC1)CCCC2 [Example 200, 3-[3-(3-Morpholin-4-yl-3-oxopropyl)-4,5,6,7-tetrahydro-1H-indol-2-ylmethylene]-1,3-dihydroindol-2-one] | –
< 30 | – | > 50000 | O=C(CCc1c(/C=C2\C(=O)Nc3ccccc32)[nH]c2c1CCCC2)NCCN1CCOCC1 [Example 202, N-(2-Morpholin-4-ylethyl)-3-[2-(2-oxo-1,2-dihydroindol-3-ylidenemethyl)-4,5,6,7-tetrahydro-1H-indol-3-yl]-propionamide] | –
